Numbered stars: 1 amine (or outer) side, 2 acyl side, 3 side chain; on linkers, the order of the positions; unused ones are H or OH. Bridge positions count the residues as written; N and C are the ends. Square brackets hold non-standard residues; d marks the D form. Peptide text beside a SMILES is read from it. * marks the point of attachment. hPhe(3,5-F2-4-CF3) = N[C@@H](CCc1cc(F)c(C(F)(F)F)c(F)c1)C(=O)O; hPhe(3-Cl-4-CF3) = N[C@@H](CCc1ccc(C(F)(F)F)c(Cl)c1)C(=O)O; hPhe(3-F,4-CF3) = N[C@@H](CCc1ccc(C(F)(F)F)c(F)c1)C(=O)O; NMePhe(4-CF3) = CN[C@@H](Cc1ccc(C(F)(F)F)cc1)C(=O)O; NMedβ3hAla = C[C@H](CC(=O)[*:2])N(C)[*:1]; Oic = O=C(O)[C@@H]1C[C@@H]2CCCC[C@@H]2N1; NMeGly(cPent) = CN[C@H](C(=O)O)C1CCCC1; Phe(3-I) = N[C@@H](Cc1cccc(I)c1)C(=O)O; Pro(4,4-F2) = O=C(O)[C@@H]1CC(F)(F)CN1; NMeAla(cPr) = CN[C@@H](CC1CC1)C(=O)O; NMe3Pal = CN[C@@H](Cc1cccnc1)C(=O)O; NMeCha = CN[C@@H](CC1CCCCC1)C(=O)O; NMeChg = CN[C@H](C(=O)O)C1CCCCC1; NMeI = CC[C@H](C)[C@H](NC)C(=O)O; N(CH2CH2)2CF2 = FC1(F)CCN(*)CC1; NMeD = CN[C@@H](CC(=O)O)C(=O)O; CH2CONHtBu = CC(C)(C)NC(=O)C*; NMeL = CN[C@@H](CC(C)C)C(=O)O; NMeV = CN[C@H](C(=O)O)C(C)C; d(β3hA) = C[C@@H](N)CC(=O)O; NMeS = CN[C@@H](CO)C(=O)O; Pip = O=C(O)[C@@H]1CCCCN1; NMeA = CN[C@@H](C)C(=O)O; NMeAib = CNC(C)(C)C(=O)O; Piperidide = C1CCN(*)CC1; Pra = C#CC[C@H](N)C(=O)O; Pyrrolidide = C1CCN(*)C1; Ac5c = NC1(C(=O)O)CCCC1; Aze = O=C(O)[C@@H]1CCN1; Ac4c = NC1(C(=O)O)CCC1; Nleu = CC(C)CNCC(=O)O; Aib = CC(C)(N)C(=O)O; Isopentyl = CC(C)CC*; Sar = CNCC(=O)O
Each compound was assayed on Human pancreatic cancer cell line AsPC-1 (G12D mutation Kras) (assay: AsPC-1 cell growth inhibition (AsPC-1 CGI)). Conditions: read-out: AsPC-1 cell growth inhibition, 50% growth inhibitory concentration (IC50 value); 96 hours, CellTiter-Glo, values classified in ranges.
Assay type: cell-based
Description: Test compounds were serially dilated with dimethyl sulfoxide, and 200 nL was then dispensed to a U-bottom 96-well plate using Labcyte Echo. […] The cell suspension was dispensed to a. plate containing a test compound at 100 μL per well and incubated at 37° C. in a 5% carbon dioxide gas incubator. 96 hours later, 80 μL of CellTiter-Glo (Promega) was added to each well and fluorescence was measured.

`CC[C@H](C)[C@@H]1NC(=O)[C@H](CC(C)C)N(C)C(=O)C[C@@H](C(=O)N2CCCCC2)N(C)C(=O)[C@H](C(C)C)N(C)C(=O)C2(CCC2)NC(=O)[C@H](CC(=O)N2CCC(F)(F)CC2)N(C)C(=O)[C@H](CCc2ccc(C(F)(F)F)c(Cl)c2)NC(=O)CN(C)C(=O)[C@H](CC2CCCCC2)N(C)C(=O)CN(C)C(=O)CN(C)C1=O` [Compound 251] ([NMeL]I[Sar][Sar][NMeCha][Sar][hPhe(3-Cl-4-CF3)][NMeD](N(CH2CH2)2CF2)[Ac4c][NMeV][NMeD]-Piperidide; lactam N-11) and `CC[C@H](C)[C@@H]1NC(=O)[C@H](CC(C)C)N(C)C(=O)C[C@@H](C(=O)N2CCCCC2)N(C)C(=O)[C@H](C(C)C)N(C)C(=O)C2(CCCC2)NC(=O)[C@@H]2CCCN2C(=O)[C@H](CCc2ccc(C(F)(F)F)c(Cl)c2)NC(=O)CN(C)C(=O)[C@H](CC2CC2)N(C)C(=O)CN(C)C(=O)CN(C)C1=O` [Compound 325] ([NMeL]I[Sar][Sar][NMeAla(cPr)][Sar][hPhe(3-Cl-4-CF3)]P[Ac5c][NMeV][NMeD]-Piperidide; lactam N-11) cannot be ordered by IC50: over 0.5 µM for the first, over 0.5 µM for the second.

`COC[C@@H]1NC(=O)[C@H](CC(C)C)N(C)C(=O)C[C@@H](C(=O)N2CCCCC2)N(C)C(=O)[C@H](C(C)C)N(C)C(=O)C2(CCCC2)NC(=O)[C@@H]2CCCN2C(=O)[C@H](CCc2ccc(C(F)(F)F)c(Cl)c2)NC(=O)CN(C)C(=O)[C@H](CC2CCCCC2)N(C)C(=O)[C@@H]2CCN2C(=O)[C@H](C)N(C)C1=O` [Compound 7] ([NMeL]S(Me)[NMeA][Aze][NMeCha][Sar][hPhe(3-Cl-4-CF3)]P[Ac5c][NMeV][NMeD]-Piperidide; lactam N-11) and `CC[C@H](C)[C@@H]1NC(=O)[C@H](CC(C)C)N(C)C(=O)C[C@@H](C(=O)N2CCCC2)NC(=O)[C@H](C(C)C)N(C)C(=O)C2(CCCC2)NC(=O)[C@@H]2CCCN2C(=O)[C@H](CCc2ccc(C(F)(F)F)c(Cl)c2)NC(=O)CN(C)C(=O)[C@H](CC2CCCCC2)N(C)C(=O)CN(C)C(=O)CN(C)C1=O` [Compound 508] ([NMeL]I[Sar][Sar][NMeCha][Sar][hPhe(3-Cl-4-CF3)]P[Ac5c][NMeV]D-Pyrrolidide; lactam N-11) cannot be ordered by IC50: over 0.5 µM for the first, over 0.5 µM for the second.

`CC[C@H](C)[C@@H]1NC(=O)[C@H](CC(C)C)N(C)C(=O)C[C@@H](C)NC(=O)[C@H](C(C)C)N(C)C(=O)C2(CCCC2)NC(=O)[C@@H]2CCCN2C(=O)[C@H](CCc2ccc(C(F)(F)F)c(Cl)c2)NC(=O)CN(C)C(=O)[C@H](COc2ccccc2Cl)N(C)C(=O)CN(C)C(=O)CN(C)C1=O` [Compound 1582] and `CC[C@H](C)[C@@H]1NC(=O)[C@H](CC(C)C)N(C)C(=O)C[C@@H](C)NC(=O)[C@H](C(C)C)N(C)C(=O)C2(CCCC2)NC(=O)[C@@H]2CCCN2C(=O)[C@H](CCc2ccc(C(F)(F)F)c(Cl)c2)NC(=O)CN(C)C(=O)[C@H](CC2CCCCC2)N(C)C(=O)CN(C)C(=O)CN(CC(C)C)C1=O` [Compound 970] (cyclo([Ac5c][NMeV][d(β3hA)][NMeL]I[Nleu][Sar][NMeCha][Sar][hPhe(3-Cl-4-CF3)]P)) cannot be ordered by IC50: over 0.5 µM for the first, over 0.5 µM for the second.

`CC[C@H](C)[C@@H]1NC(=O)[C@H](CC(C)C)N(C)C(=O)C[C@@H](C(=O)N2CCCCC2)N(C)C(=O)[C@H](C2CCCCC2)N(C)C(=O)C2(CCCC2)NC(=O)[C@H](Cc2cccnc2)N(C)C(=O)[C@H](CCc2ccc(C(F)(F)F)c(Cl)c2)NC(=O)CN(C)C(=O)[C@H](CC2CCCCC2)N(C)C(=O)CN(C)C(=O)CN(C)C1=O` [Compound 63] ([NMeL]I[Sar][Sar][NMeCha][Sar][hPhe(3-Cl-4-CF3)][NMe3Pal][Ac5c][NMeChg][NMeD]-Piperidide; lactam N-11) and `CC[C@H](C)[C@@H]1NC(=O)[C@H](CC(C)C)N(C)C(=O)C[C@@H](C(=O)N2CCCCC2)N(C)C(=O)[C@H](C2CCCCC2)N(C)C(=O)C2(CCCC2)NC(=O)[C@@H]2C[C@@H]3CCCC[C@@H]3N2C(=O)[C@H](CCc2ccc(C(F)(F)F)c(Cl)c2)NC(=O)CN(C)C(=O)[C@H](CC2CCCCC2)N(C)C(=O)CN(C)C(=O)CN(C)C1=O` [Compound 297] ([NMeL]I[Sar][Sar][NMeCha][Sar][hPhe(3-Cl-4-CF3)][Oic][Ac5c][NMeChg][NMeD]-Piperidide; lactam N-11) cannot be ordered by IC50: over 0.5 µM for the first, over 0.5 µM for the second.

First: CC[C@H](C)[C@@H]1NC(=O)[C@H](CC(C)C)N(C)C(=O)C[C@@H](C)N(C)C(=O)[C@H]([C@@H](C)CC)N(C)C(=O)C2(CCCC2)NC(=O)[C@@H]2CC(F)(F)CN2C(=O)[C@H](CCc2cc(F)c(C(F)(F)F)c(F)c2)NC(=O)CN(C)C(=O)[C@H](Cc2ccc(C(F)(F)F)cc2)N(C)C(=O)[C@@H]2CCN2C(=O)[C@H](C)N(C)C1=O [Compound 863] (cyclo([Ac5c][NMeI][NMedβ3hAla][NMeL]I[NMeA][Aze][NMePhe(4-CF3)][Sar][hPhe(3,5-F2-4-CF3)][Pro(4,4-F2)]))
Second: C#CC[C@@H]1NC(=O)[C@H](Cc2cccc(I)c2)NC(=O)CN(C)C(=O)[C@H](Cc2ccc(C(F)(F)F)cc2)N(C)C(=O)[C@@H]2CCN2C(=O)[C@H](C)N(C)C(=O)[C@H]([C@@H](C)CC)NC(=O)[C@H](CC(C)C)N(C)C(=O)C[C@@H](C(=O)N2CCCCC2)N(C)C(=O)[C@H](CC(C)C)NC(=O)C(C)(C)N(C)C1=O [Compound 1258] ([NMeL]I[NMeA][Aze][NMePhe(4-CF3)][Sar][Phe(3-I)][Pra][NMeAib]L[NMeD]-Piperidide; lactam N-11)
The IC50 of the first is lower: at most 0.02 µM for the first, over 0.5 µM for the second. The first is the more potent here.

`CC[C@H](C)[C@@H]1NC(=O)[C@H](C2CCCC2)N(C)C(=O)C[C@@H](C)NC(=O)[C@H](C(C)C)N(C)C(=O)C2(CCCC2)NC(=O)[C@@H]2CCCN2C(=O)[C@H](CCc2ccc(C(F)(F)F)c(Cl)c2)NC(=O)CN(C)C(=O)[C@H](CC2CCCCC2)N(C)C(=O)CN(C)C(=O)CN(C)C1=O` [Compound 857] (cyclo([Ac5c][NMeV][d(β3hA)][NMeGly(cPent)]I[Sar][Sar][NMeCha][Sar][hPhe(3-Cl-4-CF3)]P)) and `CC[C@H](C)[C@@H]1NC(=O)[C@H](C)N(C)C(=O)C[C@@H](C)NC(=O)[C@H](C(C)C)N(C)C(=O)C(C)(C)N(C)C(=O)[C@@H]2CCCN2C(=O)[C@H](CCc2ccc(C(F)(F)F)c(Cl)c2)NC(=O)CN(C)C(=O)[C@H](CC2CCCCC2)N(C)C(=O)CN(C)C(=O)CN(C)C1=O` [Compound 93] (cyclo(I[Sar][Sar][NMeCha][Sar][hPhe(3-Cl-4-CF3)]P[NMeAib][NMeV][d(β3hA)][NMeA])) cannot be ordered by IC50: over 0.5 µM for the first, over 0.5 µM for the second.

`CC[C@H](C)[C@@H]1NC(=O)[C@H](CC(C)C)N(C)C(=O)C[C@@H](C)NC(=O)[C@H](CC(C)C)N(C)C(=O)C(C)(C)NC(=O)[C@H](COCC(=O)NC(C)(C)C)N(C)C(=O)[C@H](CCc2ccc(C(F)(F)F)c(Cl)c2)NC(=O)CN(C)C(=O)[C@H](COCCC(C)C)N(C)C(=O)CN(C)C(=O)CN(C)C1=O` [Compound 1467] (cyclo([Aib][NMeL][d(β3hA)][NMeL]I[Sar][Sar][NMeS](Isopentyl)[Sar][hPhe(3-Cl-4-CF3)][NMeS](CH2CONHtBu))) and `CC[C@H](C)[C@@H]1NC(=O)[C@@H]2CCCCN2C(=O)C[C@@H](C(=O)N2CCCCC2)N(C)C(=O)[C@H](C(C)C)N(C)C(=O)C2(CCCC2)NC(=O)[C@@H]2CCCN2C(=O)[C@H](CCc2ccc(C(F)(F)F)c(F)c2)NC(=O)CN(C)C(=O)[C@H](CC2CCCCC2)N(C)C(=O)CN(C)C(=O)CN(C)C1=O` [Compound 670] ([Pip]I[Sar][Sar][NMeCha][Sar][hPhe(3-F,4-CF3)]P[Ac5c][NMeV][NMeD]-Piperidide; lactam N-11) cannot be ordered by IC50: over 0.5 µM for the first, over 0.5 µM for the second.
